Laboratory results from the NIST ThermoML archive (doi:10.1016/j.jct.2015.08.023).
Values joined by “and” are separate entries in the source; they are usually repeats but may differ in a detail not shown here. Identical values can stand only once.

Conditions: Liquid, Closed cell (Static) method

CNCCCN [N-methyl-1,3-diaminopropane]
Conditions	vapor or sublimation pressure
273 K	0.089 kPa
273.15 K	0.089 kPa
283.15 K	0.204 kPa
283.37 K	0.205 kPa
293.15 K	0.4319 kPa
293.47 K	0.431 kPa
303.11 K	0.861 kPa
303.15 K	0.8539 kPa
313.15 K	1.591 kPa
313.18 K	1.607 kPa
323.15 K	2.814 kPa
323.26 K	2.83 kPa and 2.828 kPa
333.15 K	4.755 kPa
333.23 K	4.764 kPa
333.25 K	4.764 kPa
343.15 K	7.716 kPa
343.26 K	7.745 kPa
343.28 K	7.742 kPa
343.3 K	7.74 kPa
352.54 K	11.85 kPa
353.15 K	12.08 kPa
353.24 K	12.14 kPa
362.82 K	18.1 kPa
362.84 K	18.11 kPa
363.15 K	18.31 kPa
372.74 K	26.61 kPa
372.76 K	26.61 kPa
382.84 K	38.34 kPa
382.87 K	38.35 kPa
392.92 K	53.96 kPa
392.95 K	53.96 kPa
402.59 K	73.4 kPa
402.61 K	73.41 kPa
422.46 K	129.8 kPa and 129.79 kPa
422.51 K	129.84 kPa
432.4 K	169.97 kPa and 170.02 kPa

CCN(CC)CCCN [N,N-diethylpropane-1,3-diamine]
Conditions	vapor or sublimation pressure
263.16 K	0.014 kPa
273.05 K	0.034 kPa
273.15 K	0.0338 kPa
283.15 K	0.0768 kPa
283.27 K	0.077 kPa
293.15 K	0.1631 kPa
293.22 K	0.163 kPa
303.14 K	0.326 kPa
303.15 K	0.3257 kPa
303.16 K	0.325 kPa
313.15 K	0.6164 kPa
313.16 K	0.616 kPa
313.18 K	0.616 kPa
323.15 K	1.112 kPa
323.16 K	1.114 kPa and 1.112 kPa
333.15 K	1.922 kPa
333.18 K	1.94 kPa
343.15 K	3.199 kPa
343.21 K	3.234 kPa
353.15 K	5.143 kPa
353.19 K	5.161 kPa and 5.162 kPa
363.15 K	8.017 kPa
363.25 K	7.965 kPa

CN(C)CCCN [N,N-dimethyl-1,3-propanediamine]
Conditions	vapor or sublimation pressure
273.04 K	0.183 kPa
283.06 K	0.381 kPa
283.15 K	0.3844 kPa
293.13 K	0.749 kPa
293.15 K	0.7536 kPa
303.15 K	1.397 kPa
303.16 K	1.396 kPa
313.15 K	2.464 kPa
313.21 K	2.478 kPa
323.15 K	4.162 kPa
323.27 K	4.186 kPa
333.15 K	6.763 kPa
333.32 K	6.828 kPa
343.15 K	10.61 kPa
343.37 K	10.73 kPa and 10.72 kPa
353.15 K	16.15 kPa
353.41 K	16.31 kPa
363.15 K	23.9 kPa
363.44 K	24.1 kPa
